# Where two headings read alike, the source gives them in different places.
# Legend:
# [1] = tested on: MGMT; assay: MGMT protein expression (SDS-PAGE, western blotting) in 8901; assay type: cell-based; conditions: as concentration increased, treated 3 to 48 hours, FIG. 4
# Protocol: (§1) Brain cancer cell lines 8901 and GBM22-TMZ with temozolomide-resistance were cultured in a petri dish with a diameter of 10 cm, respectively. A PBS solution was used to rinse the cells after the cell proliferation reached to 60% by volume of the dish. (Z)-butylidenephthalide or (E)-butylidenephthalide was added to treat the cells for 3 to 48 hours, and then the cells were collected. The total RNA of the cells was extracted and reverse transcribed into cDNA (using 50 micro-mole of […] and 50 pico-mole of random hexamers primer). One unit of ExTaq DNA polymerase, 200 nM dNTP (1 μL), and 2.5 mM of MgCl2 (1 μL) were added, and then 20 mM of MGMT nucleotide primers (1 μL each) and 50 μL of water were added.
# (§2) In another aspect, the intracellular proteins of the aforesaid brain cancer cell lines 8901 and GBM22-TMZ were collected. SDS-PAGE and western blotting were used to analyze the expression of the MGMT protein in the brain cancer cell lines.
# [2] = tested on: MGMT; assay: MGMT RNA expression (RT-PCR, gel electrophoresis) in 8901; assay type: cell-based; conditions: as concentration increased, treated 3 to 48 hours, FIG. 3
# Protocol: as §1
# The sample was placed into a polymerase chain reaction (PCR) system (GeneAmp PCR System 2400, Perkin Elmer, USA). The condition was set as: denaturing, 94° C., 30 s; annealing, 55° C., 30 s; extension, […]; 30 cycles; and finally 72° C., 10 minutes. Afterwards, the system temperature was decreased to 4° C. to terminate the reaction. The product from the PCR was analysed by a 1.5% gel electrophoresis. The gel was analysed by Fluoro-Chem imaging system (Alpha InnoTech Cooperation) to determine the expression level of MGMT gene.
# [3] = tested on: brain cancer cell line DBTRG; assay: MTT cell viability assay, DBTRG; assay type: cell-based; conditions: for viability at 500 µM: Concentration 500 μM; for IC50: 48 h, read-out: IC50 value
# Protocol: (§3) The MTT (3-[4,5-dimethylthiahiazo-2-yl]-2,4-dipheny-tetrazolium bromide) cell viability assay was used to study the mortality effect of temozolomide to various brain cancer cell lines. (See Pauwels et al., J. Virol. Methods, 1988, 20, 309-321 for the MTT cell viability assay, which is incorporated hereinto by reference).
# The cell viability rate and mortality rate were calculated based on the absorbance.
# [4] = tested on: brain cancer cell line 8401; assay: MTT cell viability assay, 8401; assay type: cell-based
# From the text: as §3
# [5] = tested on: brain cancer cell line GBM22-TMZ; assay: In vivo subcutaneous tumor transplant test; design: species or system Balb/c nude mice; conditions: 28th day
# Protocol: An in vivo test was carried out by a subcutaneous tumor transplant mode to observe the anti-tumor activity of (Z)-butylidenephthalide, temozolomide, or their combination in vivo.
# First, 2×10^6 cells of brain cancer cell line GBM22-TMZ with temozolomide-resistance were cultured sterilely and subcutaneously injected to Balb/c nude mice (purchased from the National Laboratory Animal Center, Taiwan) to carry out the in vivo tumor transplant experiment. When the tumor was grown to 100 mm^3 (length×width×width/2), the subcutaneous administration was carried out for treatment. On the contralateral side of the tumor tissue, at a position more than 1.5 cm, (Z)-butylidenephthalide was injected, or temozolomide was orally administrated, once per day consecutively for 5 days. In the treatment group in which (Z)-butylidenephthalide and temozolomide were administrated in combination, (Z)-butylidenephthalide was first subcutaneously administrated (SC), and 2 hours later, temozolomide was orally administrated (PO). After administration on the 5th day, the tumor size and the body weight of the mice were observed continuously for 28 days, and were measured every 3 days. The measurement value of the tumor size on the 28th day was used as the assessment result of the inhibiting activity on tumor growth. The smaller the value, the better the inhibition effect. […] There was a significant difference when P value was less than […]. The results are shown in Table 7, and FIGS. 11A and 11B.
# [6] = tested on: MGMT; assay: MGMT protein expression (SDS-PAGE, western blotting) in GBM22-TMZ; assay type: cell-based, human; conditions: as concentration increased, FIG. 5
# Protocol: as §1, §2
# [7] = tested on: brain cancer cell line GBM22-TMZ; assay: MTT cell viability assay, GBM22-TMZ (with CalcuSyn combination index); conditions: Homo sapiens, 48 h
# Protocol: In a 96-microwell plate, each well was cultured with 3×10^3 cells of brain cancer cell line 8901 which have temozolomide-resistance. The next day, different concentrations of temozolomide (0 to 1200 μM, 200 μL) or the combination of temozolomide and (Z)-butylidenephthalide (0 to 200 μM, 200 μL) were dropped into the well along the interior wall of the plate. Four microwell plates were used for each analysis, and four wells were used for each combination of various drug concentrations. A solvent was placed into the first row as the control group. After the cells were cultured for 2 days, the culture solution was drawn and discarded, and a culture solution containing 500 μg/mL of MTT (200 μL) was added to culture for another 4 hours. The culture solution was drawn and discarded, and 200 μL of DMSO was added, and then the microwell plate spectrometer was used to measure the absorbance of the cells at a wavelength of 570 nm. The cell viability rate and mortality rate and the concentrations of temozolomide that reached the mortality rate of 50% of various brain cancer cell lines (IC50) were calculated based on the absorbance.
# In a 96-microwell plate, each well was cultured with 3×10^3 cells of brain cancer cell line 8901 or GBM22-TMZ with temozolomide-resistance. […] The microwell plate spectrometer was then used to measure the absorbance of the cells at a wavelength of 570 nm. […]
# [8] = tested on: brain cancer cell line GBM22-TMZ; assay: In vivo survival analysis, glioblastoma orthotopic xenografts; design: species or system Mice
# Protocol: A survival analysis was carried out to investigate the antiglioma effect of the combination of (Z)-butylidenephthalide and temozolomide in vivo. Mice with established glioblastoma orthotopic xenografts from brain cancer cell line GBM22-TMZ were randomized to carry out the therapy with indicated temozolomide (66 mg/kg/day; 5 days), (Z)-butylidenephthalide (50 or 100 mg/kg/day; 5 days), or combinations thereof. Observation was recorded until the mice reached a moribund state, and survival results are shown as Kaplan-Meier survival curves.
# [9] = tested on: brain cancer cell line 8901; assay: MTT cell viability assay, 8901 (with CalcuSyn combination index); assay type: cell-based; conditions: for IC50: 48 h, single agent, cultured 2 days, MTT
# From the text: as §3
# [10] = tested on: brain cancer cell line G5T/VGH; assay: MTT cell viability assay, G5T/VGH; assay type: cell-based
# From the text: as §3
# [11] = read-out: Viability rate of DBTRG(%)
# [12] = 48 h, single agent, cultured 2 days, MTT
structure (smiles),measurement,setting,value
"CCC/C=C1/OC(=O)c2ccccc21 [(E)-butylidenephthalide, reference compound]",expression of proteins of MGMT,[1],no significant changes
same,expression of RNA of MGMT,[2],no significant changes
same,viability at 500 µM,[3]; [11],88%
same,viability at 1500 µM,"[3]; Concentration 1500 μM, read-out: Viability rate of DBTRG(%)",81%
same,viability at 2500 µM,"[3]; Concentration 2500 μM, read-out: Viability rate of DBTRG(%)",70%
same,killing of brain cancer cells,"[3]; DBTRG, high dosage of 2500 μM",cannot kill brain cancer cells effectively
CCC/C=C1\OC(=O)c2ccccc21 [(Z)-butylidenephthalide],growth inhibition of brain cancer cell line,"[4]; 0 to 400 μM, FIG. 10",effectively inhibit the growth
same,Relative tumor size (fold),"[5]; SC consecutively for 5 days, 50 mg/kg/day",2.7 fold
same,Relative tumor size (fold),"[5]; SC consecutively for 5 days, 100 mg/kg/day",2.6 fold
same,expression of proteins of MGMT,[6],reduced
same,IC50,[7],451 µM
same,expression of proteins of MGMT,[1],reduced
same,Survival rate,"[8]; (Z)-butylidenephthalide (50 mg/kg), Day 0",100%
same,Survival rate,"[8]; (Z)-butylidenephthalide (50 mg/kg), Day 5",100%
same,Survival rate,"[8]; (Z)-butylidenephthalide (50 mg/kg), Day 8",100%
same,Survival rate,"[8]; (Z)-butylidenephthalide (50 mg/kg), Day 11",100%
same,Survival rate,"[8]; (Z)-butylidenephthalide (50 mg/kg), Day 14",100%
same,Survival rate,"[8]; (Z)-butylidenephthalide (50 mg/kg), Day 18",100%
same,Survival rate,"[8]; (Z)-butylidenephthalide (50 mg/kg), Day 21",66%
same,Survival rate,"[8]; (Z)-butylidenephthalide (50 mg/kg), Day 28",0%
same,Survival rate,"[8]; (Z)-butylidenephthalide (50 mg/kg), Day 30",0%
same,Survival rate,"[8]; (Z)-butylidenephthalide (100 mg/kg), Day 0",100%
same,Survival rate,"[8]; (Z)-butylidenephthalide (100 mg/kg), Day 5",100%
same,Survival rate,"[8]; (Z)-butylidenephthalide (100 mg/kg), Day 8",100%
same,Survival rate,"[8]; (Z)-butylidenephthalide (100 mg/kg), Day 11",100%
same,Survival rate,"[8]; (Z)-butylidenephthalide (100 mg/kg), Day 14",100%
same,Survival rate,"[8]; (Z)-butylidenephthalide (100 mg/kg), Day 18",100%
same,Survival rate,"[8]; (Z)-butylidenephthalide (100 mg/kg), Day 21",66%
same,Survival rate,"[8]; (Z)-butylidenephthalide (100 mg/kg), Day 28",0%
same,Survival rate,"[8]; (Z)-butylidenephthalide (100 mg/kg), Day 30",0%
same,growth inhibition of brain cancer cell line,"[9]; 0 to 400 μM, FIG. 10",effectively inhibit the growth
same,IC50,[9],219 µM
same,growth inhibition of brain cancer cell line,"[10]; 0 to 400 μM, FIG. 10",effectively inhibit the growth
same,expression of RNA of MGMT,[2],reduced
same,IC50,[3],~250 µM
same,viability at 125 µM,"[3]; Concentration 125 μM, read-out: Viability rate of DBTRG(%)",80%
same,viability at 250 µM,"[3]; Concentration 250 μM, read-out: Viability rate of DBTRG(%)",58%
same,viability at 500 µM,[3]; [11],30%
same,growth inhibition of brain cancer cell line,"[3]; DBTRG, 0 to 400 μM, FIG. 10",effectively inhibit the growth
Cn1nnc2c(C(N)=O)ncn2c1=O [temozolomide],IC50,[4]; [12],831 µM
same,Relative tumor size (fold),"[5]; PO consecutively for 5 days, 66 mg/kg/day",4.3 fold
same,IC50,[7],> 3200 µM
same,Survival rate,"[8]; temozolomide (66 mg/kg), Day 0",100%
same,Survival rate,"[8]; temozolomide (66 mg/kg), Day 5",100%
same,Survival rate,"[8]; temozolomide (66 mg/kg), Day 8",100%
same,Survival rate,"[8]; temozolomide (66 mg/kg), Day 11",66%
same,Survival rate,"[8]; temozolomide (66 mg/kg), Day 14",66%
same,Survival rate,"[8]; temozolomide (66 mg/kg), Day 18",66%
same,Survival rate,"[8]; temozolomide (66 mg/kg), Day 21",33%
same,Survival rate,"[8]; temozolomide (66 mg/kg), Day 28",0%
same,Survival rate,"[8]; temozolomide (66 mg/kg), Day 30",0%
same,IC50,[9],1200 µM
same,IC50,[10]; [12],1660 µM
same,IC50,"[3]; DBTRG, single agent, cultured 2 days, MTT",1660 µM

# Reference: patent publication US9018251B2, “Method for treating brain cancer or reducing temozolomide-resistance of brain cancer cells” (China Medical University, priority 2011, dated 2015)
